Article PMC7073524 (Marine Drugs, 2020)
Read-outs that look alike come from different tables or passages of the source.

How the values were obtained:
rat brain α7 receptors = rat brain α7 receptors (Rattus norvegicus, UniProt Q05941); assay: biochemical; assay type: binding
human α7 nAChR = biological target: T1, human α7 nAChR (Homo sapiens, UniProt P36544); assay: Two-electrode voltage-clamp, human α7 nAChRs expressed in Xenopus oocytes; assay type: cell-based; conditions: for EC50: EC50, potency, peak current estimates; for EC50 / Imax (% ACh): ± SEM; for Imax (% ACh): efficacy, peak current normalized to 1 mM ACh; for agonist character at α7 nAChRs: in words
T1 construct: expressed in transfected cells; host or cells: Xenopus laevis oocytes (mRNA injection)
Excerpt: (§1) It has been especially useful for investigating α7 nAChRs, due to the difficulties that were initially encountered in functional expression of this particular homomeric nAChR in mammalian cells. We measured the peak current response of an oocyte to a given concentration of the compound and expressed its amplitude with respect to the mean response to ACh before and after the compound test concentration.
(§2) Oocytes were harvested from Xenopus laevis frogs obtained from NASCO Scientific Co. (Ft. Atkinson, WI, USA) according to an accepted Kem laboratory Institutional Animal Care Committee (IACUC) approved protocol. We have already described the methods of oocyte injection, perfusion, rapid solution changes, and recording in considerable detail. Oocytes were injected with identical amounts (usually 12 ng) of human α4 and β2 mRNAs for α4β2 nAChR expression, or 20 ng of human α7 mRNAs for α7 nAChR expression. The two-electrode voltage-clamp method was used for recording peak responses (holding Em-50 mV for α4β2 and-60 mV for α7 receptors). […] The oocyte was no longer used if the current response to ACh decreased more than 20% during the experiment. Compounds dissolved in Barth’s saline (pH 7.3) were rapidly administered by an AutoMate perfusion system. Compound applications were separated by a 5 min wash period. We utilized GraphPad Prism software to analyze the data, always assuming a single homogeneous receptor population.

human α4β2 nAChR [1] = biological target: T2, human α4β2 nAChR (Homo sapiens, UniProt P17787+P43681); assay: Two-electrode voltage-clamp, human α4β2 nAChRs expressed in Xenopus oocytes; assay type: cell-based; conditions: ± SEM; for EC50: EC50, potency, peak current; for Imax (% ACh): efficacy, peak current normalized to 100 µM ACh
T2 construct: expressed in transfected cells; host or cells: Xenopus laevis oocytes (mRNA injection)
Excerpt: as §1, §2

rat brain α4β2 nAChRs = rat brain α4β2 nAChRs (Rattus norvegicus, UniProt P09483+P12390); assay: [3H]-cytisine displacement from rat brain membranes; assay type: binding; conditions: ± SEM; for Ki: 0.3 nM [3H]-cytisine, 4 °C 4 h; for Hill Slope: [3H]-cytisine displacement
Procedure: [^3H]-Cytisine was purchased from New England Nuclear and iodinated α-bungarotoxin [^125I]-BTX from Amersham. […] [^3H]-Cytisine binding experiments were performed according to [57] with several modifications. Rat brain membranes were incubated with [^3H]-cytisine at 4 °C for 4 h. Then, 200 μg of membrane protein was incubated in a final volume of 500 μL binding saline at 4 °C for 4 h, while binding assays with ^125I-bungarotoxin were incubated at 37 °C for 3 h to assure that equilibrium was reached. […] Reactions were terminated by vacuum filtrations through Whatman GF/C filters (presoaked in PEI) using a Brandel cell harvester. Bound [^3H]-cytisine and ^125I-bungarotoxin were measured with liquid scintillation and gamma counters, respectively. Data were analyzed using GraphPad Prism software (San Diego, CA, USA). The data were fit by nonlinear regression analyses to a sigmoidal dose-response with variable slope. Ki values were calculated using the Cheng-Prusoff equation (K i = IC50/(1 + [RL]/Kd RL)) with a Kd RL value for each radioligand that had been previously determined. IC50 is the median inhibition concentration of the experimental compound and [RL] is the concentration of the radioligand.

human α4β2 nAChR [2] = biological target: T2, human α4β2 nAChR; conditions: human α4β2 nAChRs; ref Kem et al., in preparation; cited from earlier work

T2 sequence (P43681 29-627 limits assumed): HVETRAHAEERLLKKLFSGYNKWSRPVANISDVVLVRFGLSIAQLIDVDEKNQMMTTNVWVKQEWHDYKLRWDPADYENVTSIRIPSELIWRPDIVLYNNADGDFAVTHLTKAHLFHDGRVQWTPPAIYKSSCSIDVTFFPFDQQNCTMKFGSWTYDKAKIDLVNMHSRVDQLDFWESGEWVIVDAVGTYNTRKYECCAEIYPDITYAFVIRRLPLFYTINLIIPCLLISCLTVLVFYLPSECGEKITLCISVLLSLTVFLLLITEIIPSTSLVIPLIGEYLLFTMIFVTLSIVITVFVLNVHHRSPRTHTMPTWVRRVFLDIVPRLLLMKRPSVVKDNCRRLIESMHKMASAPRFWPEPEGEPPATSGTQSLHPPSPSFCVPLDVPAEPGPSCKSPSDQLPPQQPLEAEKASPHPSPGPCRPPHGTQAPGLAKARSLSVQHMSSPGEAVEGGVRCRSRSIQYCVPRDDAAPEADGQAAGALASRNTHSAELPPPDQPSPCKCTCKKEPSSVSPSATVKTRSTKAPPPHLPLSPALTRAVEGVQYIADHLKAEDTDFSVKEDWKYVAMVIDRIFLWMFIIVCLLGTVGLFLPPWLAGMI
T2 sequence (P17787 26-502): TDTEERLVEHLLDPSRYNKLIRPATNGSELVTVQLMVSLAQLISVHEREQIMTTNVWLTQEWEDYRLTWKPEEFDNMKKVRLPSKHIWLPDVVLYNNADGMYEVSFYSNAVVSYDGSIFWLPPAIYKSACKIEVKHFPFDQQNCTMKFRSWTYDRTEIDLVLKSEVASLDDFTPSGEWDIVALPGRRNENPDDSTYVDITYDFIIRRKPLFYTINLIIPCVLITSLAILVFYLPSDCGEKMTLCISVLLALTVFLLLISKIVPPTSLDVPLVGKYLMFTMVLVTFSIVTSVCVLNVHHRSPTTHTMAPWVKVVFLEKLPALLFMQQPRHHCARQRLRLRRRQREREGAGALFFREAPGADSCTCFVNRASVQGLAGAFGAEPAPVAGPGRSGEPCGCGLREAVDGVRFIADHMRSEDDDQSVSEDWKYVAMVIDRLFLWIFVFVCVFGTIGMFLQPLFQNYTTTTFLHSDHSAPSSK
Sequence of rat brain α4β2 nAChRs (P09483 31-630): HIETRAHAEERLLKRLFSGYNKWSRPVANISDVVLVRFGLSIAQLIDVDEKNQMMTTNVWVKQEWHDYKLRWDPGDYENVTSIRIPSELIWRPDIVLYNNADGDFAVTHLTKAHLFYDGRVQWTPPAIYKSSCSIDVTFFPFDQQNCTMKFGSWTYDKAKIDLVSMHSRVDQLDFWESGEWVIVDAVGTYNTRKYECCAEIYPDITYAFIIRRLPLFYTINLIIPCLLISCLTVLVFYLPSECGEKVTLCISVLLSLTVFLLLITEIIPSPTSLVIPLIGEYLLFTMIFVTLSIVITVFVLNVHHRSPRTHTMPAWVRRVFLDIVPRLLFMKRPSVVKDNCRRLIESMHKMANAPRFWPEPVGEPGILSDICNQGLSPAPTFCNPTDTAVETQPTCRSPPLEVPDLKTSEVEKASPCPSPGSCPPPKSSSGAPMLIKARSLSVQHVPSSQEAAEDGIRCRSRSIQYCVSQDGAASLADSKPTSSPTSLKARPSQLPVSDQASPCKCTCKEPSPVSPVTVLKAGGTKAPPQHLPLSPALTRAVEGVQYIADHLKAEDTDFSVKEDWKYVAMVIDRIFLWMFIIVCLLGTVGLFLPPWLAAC
Sequence of rat brain α4β2 nAChRs (P12390 25-500): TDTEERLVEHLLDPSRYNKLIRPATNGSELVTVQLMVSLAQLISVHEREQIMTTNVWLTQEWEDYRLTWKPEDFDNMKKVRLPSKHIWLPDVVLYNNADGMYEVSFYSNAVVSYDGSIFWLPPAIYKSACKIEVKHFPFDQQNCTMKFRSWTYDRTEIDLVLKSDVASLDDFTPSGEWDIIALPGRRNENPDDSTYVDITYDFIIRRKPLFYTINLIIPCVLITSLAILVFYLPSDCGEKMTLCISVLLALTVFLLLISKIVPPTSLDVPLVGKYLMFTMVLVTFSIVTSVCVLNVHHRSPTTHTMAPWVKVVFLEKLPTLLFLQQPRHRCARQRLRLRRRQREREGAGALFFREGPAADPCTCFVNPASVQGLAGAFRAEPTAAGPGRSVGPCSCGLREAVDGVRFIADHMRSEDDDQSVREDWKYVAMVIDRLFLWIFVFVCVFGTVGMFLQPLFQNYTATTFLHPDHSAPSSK
T1 sequence (P36544 23-502): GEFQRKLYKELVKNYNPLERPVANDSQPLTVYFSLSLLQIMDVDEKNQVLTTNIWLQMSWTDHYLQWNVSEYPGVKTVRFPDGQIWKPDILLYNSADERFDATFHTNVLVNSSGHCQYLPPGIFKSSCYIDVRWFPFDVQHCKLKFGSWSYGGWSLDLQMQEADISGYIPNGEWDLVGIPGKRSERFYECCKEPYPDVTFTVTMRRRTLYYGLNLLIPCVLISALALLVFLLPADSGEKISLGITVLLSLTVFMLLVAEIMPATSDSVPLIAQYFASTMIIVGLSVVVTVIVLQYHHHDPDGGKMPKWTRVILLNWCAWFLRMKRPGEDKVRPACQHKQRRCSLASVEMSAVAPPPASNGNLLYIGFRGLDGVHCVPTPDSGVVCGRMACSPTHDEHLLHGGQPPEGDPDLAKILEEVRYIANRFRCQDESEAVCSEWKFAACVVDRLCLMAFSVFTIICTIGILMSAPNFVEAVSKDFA
Sequence of rat brain α7 receptors (Q05941 23-502): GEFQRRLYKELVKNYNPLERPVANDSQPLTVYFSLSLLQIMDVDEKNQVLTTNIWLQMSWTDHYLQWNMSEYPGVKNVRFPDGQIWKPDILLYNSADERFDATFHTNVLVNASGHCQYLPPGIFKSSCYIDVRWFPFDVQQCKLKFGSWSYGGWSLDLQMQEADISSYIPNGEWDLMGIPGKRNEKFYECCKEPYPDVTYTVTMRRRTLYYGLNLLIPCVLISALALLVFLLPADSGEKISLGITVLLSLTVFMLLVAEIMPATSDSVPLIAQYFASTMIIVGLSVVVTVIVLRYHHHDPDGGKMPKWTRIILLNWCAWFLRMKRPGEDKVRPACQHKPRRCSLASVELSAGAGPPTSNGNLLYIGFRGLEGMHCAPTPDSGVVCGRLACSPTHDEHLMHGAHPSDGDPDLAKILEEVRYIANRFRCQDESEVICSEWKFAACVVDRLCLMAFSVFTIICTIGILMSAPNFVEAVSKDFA

Compound	Ki (rat brain α7 receptors)	EC50 (human α7 nAChR)	Imax (% ACh) (human α7 nAChR)	agonist character at α7 nAChRs (human α7 nAChR)	EC50 (human α4β2 nAChR [1])	Imax (% ACh) (human α4β2 nAChR [1])	Ki (rat brain α4β2 nAChRs)	Hill Slope (rat brain α4β2 nAChRs)	EC50 (human α4β2 nAChR [2])	Imax (human α4β2 nAChR [2])
C1=CC[C@@H](c2cccnc2)NC1 [S-anatabine, anatabine]	236 ± 20 nM	–	–	–	–	–	–	–	–	–
C1=CC(c2cccnc2)NCC1 (stereo not drawn) [R-isoanatabine, isoanatabine]	–	61300 ± 12000 nM	35.4 ± 5.3 % ACh	weak partial agonist	310 ± 90 nM	102 ± 5.7 %ACh	136 ± 11 nM	0.94 ± 0.05	–	–
c1cncc([C@@H]2CCCCN2)c1 [S-anabasine, anabasine]	–	–	–	–	–	–	–	–	4000 nM	78%
C1=CC[C@H](c2cccnc2)NC1 [R-anatabine, anatabine]	680 ± 120 nM	–	–	–	–	–	–	–	–	–
C1=CC(c2cccnc2)NCC1 (stereo not drawn) [S-isoanatabine, isoanatabine]	–	52300 ± 13000 nM	81.9 ± 9.1 % ACh	highly efficacious agonists	1010 ± 330 nM	78.7 ± 1.9 %ACh	108 ± 14 nM	1.08 ± 0.15	–	–
